# Data: ChEMBL document CHEMBL2074017, “Distinct characteristics of organic cation transporters, OCT1 and OCT2, in the basolateral membrane of renal tubules” (Pharm Res, 2001)
# Assays:
# [1] = biological target: T1, Solute carrier family 22 member 2 (Rattus norvegicus, UniProt Q9R0W2); type: functional, cell-based, MDCK
# T1 sequence (Q9R0W2 whole entry): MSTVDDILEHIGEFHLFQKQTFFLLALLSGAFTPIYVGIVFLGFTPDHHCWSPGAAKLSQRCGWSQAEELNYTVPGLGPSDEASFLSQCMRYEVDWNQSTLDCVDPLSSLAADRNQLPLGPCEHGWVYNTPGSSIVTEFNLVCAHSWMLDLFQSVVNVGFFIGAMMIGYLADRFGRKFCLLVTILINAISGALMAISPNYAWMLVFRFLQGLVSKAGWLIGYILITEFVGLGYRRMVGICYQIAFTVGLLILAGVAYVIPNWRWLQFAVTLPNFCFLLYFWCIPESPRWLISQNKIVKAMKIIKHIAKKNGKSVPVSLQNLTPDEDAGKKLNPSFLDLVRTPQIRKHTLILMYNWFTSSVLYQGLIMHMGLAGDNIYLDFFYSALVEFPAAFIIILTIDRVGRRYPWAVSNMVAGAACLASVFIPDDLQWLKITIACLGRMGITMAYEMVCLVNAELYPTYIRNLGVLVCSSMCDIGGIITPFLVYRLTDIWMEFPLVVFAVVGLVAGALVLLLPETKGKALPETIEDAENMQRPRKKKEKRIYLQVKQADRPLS
# [2] = biological target: T2, Solute carrier family 22 member 1 (Rattus norvegicus, UniProt Q63089); type: functional, cell-based, MDCK
# T2 sequence (Q63089 whole entry): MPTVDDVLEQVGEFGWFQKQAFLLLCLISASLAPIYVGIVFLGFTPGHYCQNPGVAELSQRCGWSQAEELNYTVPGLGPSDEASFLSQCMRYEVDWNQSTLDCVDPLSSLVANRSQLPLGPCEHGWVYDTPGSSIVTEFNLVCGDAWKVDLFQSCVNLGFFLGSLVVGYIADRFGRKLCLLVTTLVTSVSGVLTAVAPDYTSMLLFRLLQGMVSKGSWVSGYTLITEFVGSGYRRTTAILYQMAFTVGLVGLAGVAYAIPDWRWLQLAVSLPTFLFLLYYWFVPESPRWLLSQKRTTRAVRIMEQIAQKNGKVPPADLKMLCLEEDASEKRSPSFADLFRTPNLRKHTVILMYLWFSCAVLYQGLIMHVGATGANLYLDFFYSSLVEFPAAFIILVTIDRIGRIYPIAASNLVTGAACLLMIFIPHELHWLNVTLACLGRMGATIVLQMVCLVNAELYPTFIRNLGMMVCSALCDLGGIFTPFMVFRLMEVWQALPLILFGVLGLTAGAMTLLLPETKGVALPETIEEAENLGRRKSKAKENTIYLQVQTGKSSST
# [3] = biological target: T1, Solute carrier family 22 member 2; assay: TP_TRANSPORTER: inhibition of TEA uptake in OCT2-expressing MDCK cells; type: functional, cell-based
# [4] = biological target: T2, Solute carrier family 22 member 1; assay: TP_TRANSPORTER: inhibition of TEA uptake in OCT1-expressing MDCK cells; type: functional, cell-based
SMILES,IC50 [1] [µM],IC50 [2] [µM],Ki [3] [µM],Ki [4] [µM]
CCN(CC)CCNC(=O)c1ccc(NC(C)=O)cc1 [ACECAINIDE],5,8.8,–,–
N=C(N)NC(=O)c1nc(Cl)c(N)nc1N [AMILORIDE],–,–,4.7,6.9
CN(C)CCC(c1ccc(Cl)cc1)c1ccccn1 (stereo not given) [CHLORPHENIRAMINE],26,14,–,–
C[N+](C)(C)CCO [CHOLINE],1450,1450,–,–
CC(C)N(CCC(C(N)=O)(c1ccccc1)c1ccccn1)C(C)C (stereo not given) [DISOPYRAMIDE],–,–,30,62
NCCc1ccc(O)c(O)c1 [DOPAMINE],–,–,347,603
CNC[C@H](O)c1ccc(O)c(O)c1 [EPINEPHRINE],–,–,1190,1600
NCCc1c[nH]cn1 [HISTAMINE],–,–,171,141
CN(C)CCCN1c2ccccc2CCc2ccccc21 [IMIPRAMINE],9.9,16,–,–
CCN(CC)CCNC(=O)c1ccc(N)cc1 [PROCAINAMIDE],–,–,36,–
NCCc1c[nH]c2ccc(O)cc12 [SEROTONIN],–,–,242,390
CCCC[N+](CCCC)(CCCC)CCCC [TETRABUTHYLAMMONIUM],5.7,7.9,–,–
C[N+](C)(C)C [TETRAMETHYLAMMONIUM],1670,–,–,–
CCCCC[N+](CCCCC)(CCCCC)CCCCC [TETRAPENTYLAMMONIUM],1.7,1.3,–,–
CCC[N+](CCC)(CCC)CCC [TETRAPROPYLAMMONIUM],39,23,–,–
Cc1ncc(C[n+]2csc(CCO)c2C)c(N)n1 [THIAMINE ION],–,–,646,736
